Test results: patent US11827628B2, “Compositions and methods for inhibition of the JAK pathway” (Rigel Pharmaceuticals, Inc., priority 2005, dated 2023)
pIC50: −log10 of the molar value. Counter-ions that a name gives are not always drawn. Like-named read-outs stand apart in the source and are kept apart here.

Columns and labels:
[1] = tested on: Primary human T-cells; test: Primary Human T-Cell Proliferation Assay Stimulated with IL-2 (CellTiter-Glo); assay type: cell-based; conditions: read-out: IC50, Example 42
How it was run: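 IC50 derived from CellTiter-Glo ATP signal after 72 hours of IL-2-driven proliferation at 37° C. Cells: primary human T-cells from blood, stimulated beforehand 3-4 days on anti-CD3/anti-CD28 with IL-2, then rested from IL-2 before compound exposure in duplicate; IL-2-free wells served as unstimulated control.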

[2] = tested on: IL-4 stimulated expression of CD23 in human Ramos B cells (JAK-1 and JAK-3); test: Assay for Ramos B-Cell Line Stimulated with IL-4 (CD23 upregulation, FACS); assay type: cell-based; conditions: read-out: IC50, Example 41
How it was run: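 Compound effect on IL-4-driven JAK1/JAK3 signalling is gauged as CD23 surface expression, measured by FACS after 20-24 h of stimulation with IL-4 at 50 units/mL final. A 1 h compound pre-treatment at 37 °C precedes stimulation, and IC50 is derived from the results.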

[3] = primary human T-cell proliferation stimulated with IL-2
[4] = Ramos B-cell line stimulated with IL-4, CD23 expression by FACS
[5] = primary human T-cells stimulated with IL-2, proliferation
[6] = Ramos B cells stimulated with IL-4, CD23 expression by FACS

Compound | pIC50 [1, 3] | pIC50 [2, 4] | pIC50 [1, 5] | pIC50 [2, 6] | also measured
NS(=O)(=O)c1cccc(Nc2ncc(F)c(Nc3ccc(SCc4cccnc4)cc3)n2)c1 [Compound I-192, N2-(3-Aminosulfonylphenyl)-5-fluoro-N4-[4-(3-pyridinyl)-methylenethiophenyl]-2,4-pyrimidinediamine] | 6.81 | 6.86 |  |  | 
CCN(CC)CCNS(=O)(=O)c1ccc(Nc2ncc(F)c(Nc3ccc(OCc4ccccn4)cc3)n2)cc1 [Compound I-165, N2-[4-(2-N,N-Diethylaminoethyl)aminosulfonylphenyl)-5-fluoro-N4-[4-(2-pyridinyl)methyleneoxyphenyl]-2,4-pyrimidinediamine] | 6.35 | 6.61 |  |  | 
C[Si](C)(C)C#Cc1cnc(Nc2cccc(S(N)(=O)=O)c2)nc1Nc1ccc(OCC#N)cc1 [Compound I-15, N2-(3-Aminosulfonylphenyl)-N4-(4-cyanomethyleneoxyphenyl)-5-trimethylsilylacetylene-2,4-pyrimidinediamine] | 5.93 | 6.51 |  |  | 
CC(C)c1ccc(Nc2ncc(F)c(Nc3ccc(OCC#N)cc3)n2)cc1S(N)(=O)=O [Compound I-8, N2-(3-Aminosulfonyl-4-iso-propylphenyl)-N4-(4-cyanomethyleneoxyphenyl)-5-fluoro-2,4-pyrimidinediamine] | 6.76 | 7.23 |  |  | 
N2-(3-Aminosulfonyl-4-methylphenyl)-5-fluoro-N4-[4-(2-pyridinyl)-3-fluoromethyleneoxyphenyl]-2,4-pyrimidinediamine [Compound I-172] | 6.56 | 7.32 |  |  | 
Cc1ccc(Nc2ncc(F)c(Nc3ccc4c(c3)CN(C(=O)N(C)C)CC4)n2)cc1S(N)(=O)=O [VII-18, N2-(3-Aminosulfonyl-4-methylphenyl)-5-fluoro-N4-[2-(dimethylaminocarbonyl)-1,2,3,4-tetrahydroisoquin-7-yl]-2,4-pyrimidinediamine] |  |  | 6.08 | 6.64 | 
CCN(CC)CCNS(=O)(=O)c1ccc(Nc2ncc(F)c(Nc3ccc(OCc4cccnc4)cc3)n2)cc1 [Compound I-191, N2-[4-(2-N,N-Diethylaminoethyl)aminosulfonylphenyl)-5-fluoro-N4-[4-(3-pyridinyl)methyleneoxyphenyl]-2,4-pyrimidinediamine] | 6.53 | 6.87 |  |  | 
CN1CCN(c2ccc(Nc3ncc(F)c(Nc4ccc(OCC#N)c(F)c4)n3)cc2S(N)(=O)=O)CC1 [Compound I-10, N2-[3-Aminosulfonyl-4-(4-methylpiperazine-1-yl)phenyl]-5-fluoro-N4-(4-cyanomethyleneoxy-3-fluorophenyl)-2,4-pyrimidinediamine] | 7.02 | 7.59 |  |  | 
CCS(=O)(=O)N1CCc2cc(Nc3nc(Nc4ccc(S(N)(=O)=O)cc4)ncc3F)ccc2C1 [VII-13, N2-(4-aminosulfonyl)phenyl-N4-[(N-ethylsulfonyl)-1,2,3,4-tetrahydroisoquinolin-6-yl]-5-fluoro-2,4-pyrimidinediamine] |  |  | 6.42 | 6.85 | 
N#CCn1ccc2cc(Nc3nc(Nc4ccc(Cl)c(S(N)(=O)=O)c4)ncc3F)ccc21 [IX-7, N2-(3-Aminosulfonyl-4-chlorophenyl)-N4-(1-cyanomethyleneindol-5-yl)-5-fluoro-2,4-pyrimidinediamine] |  |  | 6.12 | 6.96 | 
COCCOc1ccc(Nc2nc(Nc3ccc(Cl)c(S(N)(=O)=O)c3)ncc2F)cc1 [VI-111, N2-(3-Aminosulfonyl-4-chlorophenyl)-5-fluoro-N4-[4-(2-methoxyethyleneoxy)phenyl]-2,4-pyrimdinediamine] |  |  | 5.96 | 6.50 | 
CNS(=O)(=O)c1cc(Nc2ncc(F)c(Nc3ccc(OCc4cccnc4)cc3)n2)ccc1C [Compound I-190, 5-Fluoro-N2-[3-(N-methylaminosulfony)-4-methylphenyl]-5-fluoro-N4-[4-(3-pyridinyl)methyleneoxyphenyl]-2,4-pyrimidinediamine] | 6.62 | 6.84 |  |  | 
Cc1ccc(Nc2ncc(Br)c(Nc3ccc(OCC#N)cc3)n2)cc1S(N)(=O)=O [Compound I-14, N2-(3-Aminosulfonyl-4-methylphenyl)-5-bromo-N4-(4-cyanomethyleneoxyphenyl)-2,4-pyrimidinediamine] | 7.94 | 7.89 |  |  | 
CNS(=O)(=O)c1cc(Nc2ncc(C)c(Nc3ccc(OCc4ccccn4)cc3)n2)ccc1C [Compound I-180, 5-Methyl-N2-[3-(N-methylaminosulfony)-4-methylphenyl]-N4-[4-(2-pyridinyl)methyleneoxyphenyl]-2,4-pyrimidinediamine] | 7.54 | 7.20 |  |  | 
Cc1cc(COc2ccc(Nc3nc(Nc4ccc(C)c(S(N)(=O)=O)c4)ncc3F)cc2)n(Cc2ccccc2)n1 [Compound I-199, N2-(3-Aminosulfonyl-4-methylphenyl)-N4-[4-(1-benzyl-3-methyl-(1H)-pyrazol-5-yl)methyleneoxyphenyl]-5-fluoro-2,4-pyrimidinediamine] | 5.52 | 6.62 |  |  | 
CCS(=O)(=O)N1CCc2cc(Nc3nc(Nc4ccc(C)c(S(N)(=O)=O)c4)ncc3F)ccc2C1 [VII-15, N2-(3-aminosulfonyl-4-methyl)phenyl-N4-[(N-ethylsulfonyl)-1,2,3,4-tetrahydroisoquinolin-6-yl]-5-fluoro-2,4-pyrimidinediamine] |  |  | 6.92 | 7.18 | 
Cc1cc(COc2ccc(Nc3nc(Nc4ccc(C)c(S(N)(=O)=O)c4)ncc3F)cc2)n(C)n1 [Compound I-198, N2-(3-Aminosulfonyl-4-methylphenyl)-N4-[4-(1,3-dimethyl-(1H)-pyrazol-5-yl)methyleneoxyphenyl]-5-fluoro-2,4-pyrimidinediamine] | 6.34 | 6.99 |  |  | 
CC(Oc1ccc(Nc2nc(Nc3cccc(S(N)(=O)=O)c3)ncc2F)cc1)C(N)=O (racemic) [Compound I-117, Racemic N4-[4-(1-Aminocarbonyl)ethoxy]phenyl-N2-(3-aminosulfonyl)phenyl-5-fluoro-2,4-pyrimidinediamine] | 6.52 | 6.45 |  |  | 
N2-[3-Aminosulfonyl-4-(4-methylpiperazine-1-yl)phenyl]-N4-(3-cyanomethylene-1H-indol-7-yl)-5-fluoro-2,4-pyrimidinediamine [IX-18] |  |  | 5.62 | 6.77 | 
N#CCOc1ccc(Nc2nc(Nc3cccc(S(N)(=O)=O)c3)ncc2Br)cc1 [Compound I-13, N2-(3-Aminosulfonylphenyl)-5-bromo-N4-(4-cyanomethyleneoxyphenyl)-2,4-pyrimidinediamine] | 8.30 | 8.20 |  |  | 
Cc1ccc(Nc2ncc(F)c(Nc3ccc4c(c3)CC(C(=O)N(C)C)O4)n2)cc1S(N)(=O)=O (racemic) [VII-26, Racemic N2-(3-Aminosulfonyl-4-methylphenyl)-N4-[2-(N,N-dimethylaminocarbonyl)-2,3-dihydrobenzofuran-5-yl]-5-fluoro-2,4-pyrimidinediamine] |  |  | 5.92 | 6.26 | 
Cc1ccc(Nc2ncc(F)c(Nc3cc(C)c(OCC(N)=O)c(C)c3)n2)cc1S(N)(=O)=O [Compound I-96, N4-(4-Aminocarbonylmethoxy-3,5-dimethyl)phenyl-N2-(3-aminosulfonyl-4-methyl)phenyl-5-fluoro-2,4-pyrimidinediamine] | 6.11 | 6.88 |  |  | 
CN1C(=O)C(C)(C)Oc2cc(Nc3nc(Nc4cccc(S(N)(=O)=O)c4)ncc3F)cnc21 [VII-42, N2-(3-Aminosulfonylphenyl)-N4-[2,2,4-trimethyl-3-oxo-5-pyrid[1,4]oxazin-7-yl]-5-fluoro-2,4-pyrimidinediamine] |  |  | 5.14 | 6.17 | 
CNS(=O)(=O)c1cc(Nc2ncc(F)c(Nc3ccc4c(c3)CCN4S(C)(=O)=O)n2)ccc1C [VII-62, 5-Fluoro-N2-[3-(N-methylaminosulfony)-4-methylphenyl]-N4-[4-(1-methylsulfonyl)indolin-5-yl]-2,4-pyrimidinediamine] |  |  | 6.84 | 6.98 | 
Cc1ccc(Nc2ncc(F)c(Nc3ccc(OCC#N)c(F)c3)n2)cc1S(N)(=O)=O [Compound I-11, N2-(3-Aminosulfonyl-4-methylphenyl)-5-fluoro-N4-(4-cyanomethyleneoxy-3-fluorophenyl)-2,4-pyrimidinediamine] | 7.41 | 7.63 |  |  | 
Cc1ccc(Nc2ncc(F)c(Nc3ccc4[nH]cc(CC#N)c4c3)n2)cc1S(=O)(=O)NC1CCN(C)CC1 [IX-19, N4-(3-cyanomethylene-1H-indol-5yl)-5-fluoro-N2-[3-(1-methyl-4-aminopiperadine)sulfonyl-4-methylphenyl]-2,4-pyrimidinediamine] |  |  | 5.80 | 6.93 | 
NS(=O)(=O)c1cccc(Nc2ncc(F)c(Nc3ccc(OCc4ccccn4)cc3)n2)c1 [Compound I-196, N2-(3-Aminosulfonylphenyl)-5-fluoro-N4-4-[(2-pyridinyl)methyleneoxyphenyl]-2,4-pyrimidinediamine Hydrochloride Salt] |  |  |  |  | pIC50 ([1]; primary human T-cell proliferation stimulated with IL-2, Hydrochloride Salt): 6.86; pIC50 ([2]; Ramos B-cell line stimulated with IL-4, CD23 expression by FACS, Hydrochloride Salt): 6.90
CNS(=O)(=O)c1cc(Nc2ncc(F)c(Nc3ccc(Cn4ccnc4)cc3)n2)ccc1C [III-86, 5-Fluoro-N2-[3-(N-methylaminosulfony)-4-methylphenyl]-N4-[4-(1-imidazolylmethyl)phenyl]-2,4-pyrimidinediamine dihydrochloride] |  |  |  |  | pIC50 ([1]; primary human T-cell proliferation stimulated with IL-2, dihydrochloride): 7.03; pIC50 ([2]; Ramos B-cell line stimulated with IL-4, CD23 expression by FACS, dihydrochloride): 7.01
CS(=O)(=O)N1CCc2cc(Nc3nc(Nc4ccc(S(N)(=O)=O)cc4)ncc3F)ccc21 [VII-63] |  |  | 6.52 | 6.63 | 
